Data published in ChEMBL document CHEMBL3400041, “Pyridinic analog of the natural product (-)-spectaline as potential adjuvant for the treatment of central nervous system disorders” (Bioorg Med Chem Lett, 2015).
Calls of active or inactive are those of the source. The rule behind the calls is not given here.

Legend:
Mus musculus [1] = experiment: Effect on CNS activity in mouse assessed as reduction in exploratory behaviour at 10 mg/kg, po by spontaneous locomotor activity test; type: functional, organism-based; design: dose 10 mg/kg; details: Central nervous system
Mus musculus [2] = experiment: Effect on CNS activity in mouse assessed as reduction in number of groomings at 10 mg/kg, po by spontaneous locomotor activity test; type: functional, organism-based; design: dose 10 mg/kg; details: Central nervous system
Mus musculus [3] = experiment: Antidepressant-like activity in mouse assessed as decrease in immobility time at 5 to 10 mg/kg, po by forced swimming test; type: functional, organism-based
Mus musculus [4] = experiment: Toxicity in mouse assessed as rearing behavior at 10 mg/kg, po by spontaneous locomotor activity test; type: organism-based; design: dose 10 mg/kg, route oral; details: in vivo
Mus musculus [5] = experiment: Antischizophrenic activity in mouse assessed as inhibition of apomorphine-induced climbing behavior at 5 to 10 mg/kg, po; type: functional, organism-based
Mus musculus [6] = experiment: Antischizophrenic activity in mouse assessed as inhibition of apomorphine-induced climbing behavior at 5 mg/kg, po; type: functional, organism-based; design: dose 5 mg/kg
Mus musculus [7] = experiment: Antidepressant-like activity in mouse assessed as decrease in immobility time at 10 mg/kg, po by forced swimming test; type: functional, organism-based; design: dose 10 mg/kg
Mus musculus [8] = experiment: Antischizophrenic activity in mouse assessed as inhibition of apomorphine-induced climbing behavior at 10 mg/kg, po; type: functional, organism-based; design: dose 10 mg/kg

Structure (SMILES) | Activity (Mus musculus [1]) | Activity (Mus musculus [2]) | Activity (Mus musculus [3]) | Activity (Mus musculus [4]) | inhibition (Mus musculus [5]) | inhibition (Mus musculus [6]) | Activity (Mus musculus [7]) | inhibition (Mus musculus [8])
CCOC(=O)CSc1ccc([N+](=O)[O-])c(SCC(=O)OCC)n1 | Active | Active | inactive | Non-toxic | inactive |  |  | 
CN1CCN(C2=Nc3cc(Cl)ccc3Nc3ccccc32)CC1 |  |  |  |  |  | Active |  | 
CN(C)CCCN1c2ccccc2CCc2ccccc21 |  |  |  |  |  |  | Active | 
CCOC(=O)CSc1nc(Cl)ccc1[N+](=O)[O-] | Active | Active | inactive | Non-toxic | inactive |  |  | 
CCOC(=O)CSc1ncccc1[N+](=O)[O-] | Active | Active | Active | Non-toxic |  |  |  | Active
